{"source": "PubChem BioAssay AID248", "about": "(DTP/NCI, 2004)", "system": "L1210 leukemia ip in BDF1 mice, survival T/C", "assay": "NCI In Vivo Anticancer Drug Screen. Data for tumor model L1210 Leukemia (intraperitoneal) in B6D2F1 (BDF1) mice", "details": "endpoint: mean survival time, higher = longer survival", "outline": "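Ratio derived from survival: compound-dosed mice over vehicle-dosed mice, all bearing a transplantable tumor.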", "key": {"[1]": {"details": "dose: 100.0 mg/kg/injection, schedule: Q01DX009 (ip), vehicle: Klucel (hydroxypropylcellulose) (HPC)"}, "[2]": {"details": "dose: 200.0 mg/kg/injection, schedule: Q01DX009 (ip), vehicle: Klucel (hydroxypropylcellulose) (HPC)"}, "[3]": {"details": "dose: 400.0 mg/kg/injection, schedule: Q01DX009 (ip), vehicle: Klucel (hydroxypropylcellulose) (HPC)"}, "[4]": {"details": "dose: 100.0 mg/kg/injection, schedule: Q04DX003 (ip), vehicle: saline with Tween-80"}, "[5]": {"details": "dose: 200.0 mg/kg/injection, schedule: Q04DX003 (ip), vehicle: saline with Tween-80"}, "[6]": {"details": "dose: 400.0 mg/kg/injection, schedule: Q04DX003 (ip), vehicle: saline with Tween-80"}, "[7]": {"details": "dose: 50.0 mg/kg/injection, schedule: Q04DX002 (ip), vehicle: saline with Tween-80"}, "[8]": {"details": "dose: 100.0 mg/kg/injection, schedule: Q04DX002 (ip), vehicle: saline with Tween-80"}}, "note": "Where “and” joins values, the source holds several entries; their conditions need not be identical. Equal entries are not always repeated. Toxic doses and inconclusive results are not listed."}
{"smiles": "CC(=O)N1c2ccccc2C(=O)OC1c1ccc2c(c1)CCC2", "note": "(stereo unspecified)", "values": [{"measurement": "T/C", "setting": "dose: 100.0 mg/kg/injection, schedule: Q04DX003 (ip), vehicle: Klucel (hydroxypropylcellulose) (HPC)", "result": "94 % of control"}, {"measurement": "T/C", "setting": "dose: 200.0 mg/kg/injection, schedule: Q04DX003 (ip), vehicle: Klucel (hydroxypropylcellulose) (HPC)", "result": "89 % of control"}, {"measurement": "T/C", "setting": "dose: 400.0 mg/kg/injection, schedule: Q04DX003 (ip), vehicle: Klucel (hydroxypropylcellulose) (HPC)", "result": "102 % of control"}]}
{"smiles": "Cc1cc(C)c(C(C)(CS(C)(=O)=O)CS(C)(=O)=O)c(C)c1C(C)(CS(C)(=O)=O)CS(C)(=O)=O", "values": [{"measurement": "T/C", "setting": "[1]", "result": "105 % of control"}, {"measurement": "T/C", "setting": "[2]", "result": "102 % of control"}, {"measurement": "T/C", "setting": "[3]", "result": "105 % of control"}]}
{"smiles": "O=C(CBr)c1ccc(Br)cc1", "values": [{"measurement": "T/C", "setting": "dose: 12.5 mg/kg/injection, schedule: Q01DX009 (ip), vehicle: Klucel (hydroxypropylcellulose) (HPC)", "result": "97 % of control"}, {"measurement": "T/C", "setting": "dose: 25.0 mg/kg/injection, schedule: Q01DX009 (ip), vehicle: Klucel (hydroxypropylcellulose) (HPC)", "result": "97 % of control"}, {"measurement": "T/C", "setting": "dose: 25.0 mg/kg/injection, schedule: Q04DX002 (ip), vehicle: Klucel (hydroxypropylcellulose) (HPC)", "result": "100 % of control"}, {"measurement": "T/C", "setting": "dose: 50.0 mg/kg/injection, schedule: Q01DX009 (ip), vehicle: Klucel (hydroxypropylcellulose) (HPC)", "result": "93 % of control"}, {"measurement": "T/C", "setting": "dose: 50.0 mg/kg/injection, schedule: Q04DX002 (ip), vehicle: Klucel (hydroxypropylcellulose) (HPC)", "result": "89 % of control"}, {"measurement": "T/C", "setting": "dose: 100.0 mg/kg/injection, schedule: Q04DX002 (ip), vehicle: Klucel (hydroxypropylcellulose) (HPC)", "result": "96 % of control and 107 % of control"}, {"measurement": "T/C", "setting": "dose: 200.0 mg/kg/injection, schedule: Q04DX002 (ip), vehicle: Klucel (hydroxypropylcellulose) (HPC)", "result": "111 % of control"}, {"measurement": "T/C", "setting": "dose: 400.0 mg/kg/injection, schedule: Q04DX002 (ip), vehicle: Klucel (hydroxypropylcellulose) (HPC)", "result": "92 % of control"}]}
{"smiles": "Cc1ccc(C2(C#N)CC2)cc1", "values": [{"measurement": "T/C", "setting": "dose: 100.0 mg/kg/injection, schedule: Q01DX009 (ip), vehicle: saline with Tween-80", "result": "98 % of control"}, {"measurement": "T/C", "setting": "[4]", "result": "108 % of control"}, {"measurement": "T/C", "setting": "dose: 200.0 mg/kg/injection, schedule: Q01DX009 (ip), vehicle: saline with Tween-80", "result": "98 % of control"}, {"measurement": "T/C", "setting": "[5]", "result": "104 % of control"}, {"measurement": "T/C", "setting": "dose: 400.0 mg/kg/injection, schedule: Q01DX009 (ip), vehicle: saline with Tween-80", "result": "112 % of control"}, {"measurement": "T/C", "setting": "[6]", "result": "104 % of control"}]}
{"smiles": "O=C(CCl)OCCCl", "values": [{"measurement": "T/C", "setting": "dose: 25.0 mg/kg/injection, schedule: Q04DX002 (ip), vehicle: saline with Tween-80", "result": "95 % of control"}, {"measurement": "T/C", "setting": "[7]", "result": "103 % of control"}, {"measurement": "T/C", "setting": "[8]", "result": "93 % of control and 95 % of control"}]}
{"smiles": "CCOC(=O)/C=C(\\C)Nc1ncc(Br)cc1Br", "values": [{"measurement": "T/C", "setting": "dose: 100.0 mg/kg/injection, schedule: Q01DX001 (ip), vehicle: saline with Tween-80", "result": "92 % of control"}, {"measurement": "T/C", "setting": "dose: 200.0 mg/kg/injection, schedule: Q01DX001 (ip), vehicle: saline with Tween-80", "result": "96 % of control"}, {"measurement": "T/C", "setting": "dose: 400.0 mg/kg/injection, schedule: Q01DX001 (ip), vehicle: saline with Tween-80", "result": "89 % of control"}]}
{"smiles": "COc1cccc(N=Cc2ccc(C=Nc3cccc(OC)c3)cc2)c1", "values": [{"measurement": "T/C", "setting": "[1]", "result": "89 % of control"}, {"measurement": "T/C", "setting": "[2]", "result": "94 % of control"}, {"measurement": "T/C", "setting": "[3]", "result": "88 % of control"}]}
{"smiles": "O=C1OC(c2ccc([N+](=O)[O-])cc2)=N/C1=C\\c1cccc([N+](=O)[O-])c1", "values": [{"measurement": "T/C", "setting": "dose: 100.0 mg/kg/injection, schedule: Q01DX009 (ip), vehicle: other", "result": "96 % of control"}, {"measurement": "T/C", "setting": "dose: 200.0 mg/kg/injection, schedule: Q01DX009 (ip), vehicle: other", "result": "100 % of control"}, {"measurement": "T/C", "setting": "dose: 400.0 mg/kg/injection, schedule: Q01DX009 (ip), vehicle: other", "result": "106 % of control"}]}
{"smiles": "CN(C)C(=O)c1cc(NC(=O)Nc2ccc(C3=NCCN3)cc2)cc(NC(=O)Nc2ccc(C3=NCCN3)cc2)c1", "values": [{"measurement": "T/C", "setting": "dose: 15.0 mg/kg/injection, schedule: Q01DX Z (ip), vehicle: saline", "result": "158 % of control"}, {"measurement": "T/C", "setting": "dose: 30.0 mg/kg/injection, schedule: Q01DX Z (ip), vehicle: saline", "result": "222 % of control"}, {"measurement": "T/C", "setting": "dose: 60.0 mg/kg/injection, schedule: Q01DX Z (ip), vehicle: saline", "result": "250 % of control"}]}
{"smiles": "Nc1nc(N)c2nc(CNc3ccccc3)cnc2n1", "values": [{"measurement": "T/C", "setting": "dose: 20.0 mg/kg/injection, schedule: Q01DX009 (ip), vehicle: Klucel (hydroxypropylcellulose) (HPC)", "result": "96 % of control"}, {"measurement": "T/C", "setting": "dose: 40.0 mg/kg/injection, schedule: Q01DX009 (ip), vehicle: Klucel (hydroxypropylcellulose) (HPC)", "result": "105 % of control"}, {"measurement": "T/C", "setting": "dose: 80.0 mg/kg/injection, schedule: Q01DX009 (ip), vehicle: Klucel (hydroxypropylcellulose) (HPC)", "result": "96 % of control"}]}
{"smiles": "Cc1ccc(NC(=O)C2C3C=CC(C3)C2C(=O)Nc2ccc(C)cc2)cc1", "note": "(stereo unspecified)", "values": [{"measurement": "T/C", "setting": "[4]", "result": "96 % of control"}, {"measurement": "T/C", "setting": "[5]", "result": "96 % of control"}, {"measurement": "T/C", "setting": "[6]", "result": "91 % of control"}]}
{"smiles": "ClCCOCCOc1ccccc1OCCOCCCl", "values": [{"measurement": "T/C", "setting": "[7]", "result": "100 % of control"}, {"measurement": "T/C", "setting": "[8]", "result": "90 % of control"}]}
{"smiles": "CC(=O)Nc1ccccc1C(C)=O", "values": [{"measurement": "T/C", "setting": "[4]", "result": "92 % of control"}, {"measurement": "T/C", "setting": "[5]", "result": "93 % of control"}, {"measurement": "T/C", "setting": "[6]", "result": "93 % of control"}]}
